# Data taken from the supplement of paper PMC10307832.
# Legend:
# Experiment in all cases: relative viability (nuclei count vs DMSO), 5 days (fraction); higher = more cells survive
# Bortezomib + Foretinib = compound: CC(C)C[C@H](NC(=O)[C@H](Cc1ccccc1)NC(=O)c1cnccn1)B(O)O [Bortezomib] + COc1cc2c(Oc3ccc(NC(=O)C4(C(=O)Nc5ccc(F)cc5)CC4)cc3F)ccnc2cc1OCCCN1CCOCC1 [Foretinib] (partner 0.25 µM)
# Method in brief: (§1)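 Five library-drug doses in √10 steps were combined with a fixed anchor-drug dose, or a single drug was given alone, by pin tool to lung cancer cell lines in 1536-well plates the day after seeding. Nuclei were stained and counted after 5 days. Relative viability is the nuclei count in treated wells over that in vehicle wells, taken as the median of duplicate plates.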
# Bortezomib + Decitabine = compound: CC(C)C[C@H](NC(=O)[C@H](Cc1ccccc1)NC(=O)c1cnccn1)B(O)O [Bortezomib] + Nc1ncn([C@H]2C[C@H](O)[C@@H](CO)O2)c(=O)n1 [Decitabine] (partner 2 µM)
# Method in brief: as §1
# Obatoclax + Navitoclax = compound: COC1=CC(c2cc3ccccc3[nH]2)=N/C1=C\c1[nH]c(C)cc1C [Obatoclax] + CC1(C)CCC(c2ccc(Cl)cc2)=C(CN2CCN(c3ccc(C(=O)NS(=O)(=O)c4ccc(N[C@H](CCN5CCOCC5)CSc5ccccc5)c(S(=O)(=O)C(F)(F)F)c4)cc3)CC2)C1 [Navitoclax] (partner 0.5 µM)
# Method in brief: as §1
# [1] = compound: CC1=CC(=NN1)NC2=CC(=NC(=N2)/C=C/C3=CC=CC=C3)N4CCN(CC4)C + CC1(C)CCC(c2ccc(Cl)cc2)=C(CN2CCN(c3ccc(C(=O)NS(=O)(=O)c4ccc(N[C@H](CCN5CCOCC5)CSc5ccccc5)c(S(=O)(=O)C(F)(F)F)c4)cc3)CC2)C1 [Navitoclax] (partner 0.5 µM)
# Method in brief: as §1
Cell Line,relative viability (Bortezomib + Foretinib; first compound 0.0002 µM),relative viability (Bortezomib + Foretinib; first compound 0.000632 µM),relative viability (Bortezomib + Foretinib; first compound 0.002 µM),relative viability (Bortezomib + Foretinib; first compound 0.006325 µM),relative viability (Bortezomib + Foretinib; first compound 0.02 µM),relative viability (Bortezomib + Decitabine; first compound 0.0002 µM),relative viability (Bortezomib + Decitabine; first compound 0.000632 µM),relative viability (Bortezomib + Decitabine; first compound 0.002 µM),relative viability (Bortezomib + Decitabine; first compound 0.006325 µM),relative viability (Bortezomib + Decitabine; first compound 0.02 µM),relative viability (Obatoclax + Navitoclax; first compound 0.01 µM),relative viability (Obatoclax + Navitoclax; first compound 0.03162 µM),relative viability (Obatoclax + Navitoclax; first compound 0.1 µM),relative viability (Obatoclax + Navitoclax; first compound 0.3162 µM),relative viability (Obatoclax + Navitoclax; first compound 1 µM),relative viability ([1]; first compound 0.08 µM),relative viability ([1]; first compound 0.253 µM),relative viability ([1]; first compound 0.8 µM),relative viability ([1]; first compound 2.53 µM),relative viability ([1]; first compound 8 µM)
LCLC-103H,0.679,0.698,0.268,0.162,0.13,0.66,0.727,0.68,0.274,0.221,,,,,,,,,,
LK-2,0.982,1.39,1.12,0.161,0.165,0.274,0.384,0.281,0.227,0.15,0.885,0.822,0.957,0.864,1.02,0.821,1.03,0.711,0.247,0.133
NCI-H358,0.538,0.647,0.642,0.0816,0.0663,0.204,0.207,0.191,0.0949,0.0871,,,,,,,,,,
NCI-H522,,,,,,0.777,0.621,0.575,0.432,0.386,,,,,,,,,,
NCI-H661,1.04,1.03,1.01,0.559,0.219,0.553,0.553,0.529,0.395,0.204,,,,,,,,,,
NCI-H1299,1.09,1.06,1.17,0.416,0.121,,,,,,1.04,1.07,1.04,1.07,0.997,1.04,1.13,1.03,0.863,0.243
NCI-H1563,0.874,0.966,0.803,0.526,0.475,,,,,,,,,,,,,,,
NCI-H1623,0.831,0.992,0.803,0.473,0.344,,,,,,,,,,,,,,,
NCI-H1648,,,,,,0.516,0.444,0.366,0.453,0.292,,,,,,,,,,
NCI-H1703,0.324,0.342,0.211,0.153,0.176,,,,,,1.27,1.34,0.955,0.385,0.292,0.929,0.965,0.283,0.134,0.108
NCI-H1792,,,,,,0.473,0.581,0.664,0.286,0.0625,0.647,0.586,,0.626,0.561,0.558,0.599,0.611,0.437,0.102
NCI-H2228,0.957,0.962,0.595,0.0857,0.0911,,,,,,1.16,0.984,0.677,0.919,0.944,1.11,0.893,0.747,0.0829,0.0768
NCI-H2342,1.02,0.945,0.829,0.929,0.34,0.818,0.795,0.694,0.725,0.436,,,,,,,,,,
SW 900,0.87,0.743,0.155,0.119,0.126,0.347,0.423,0.227,0.206,0.284,,,,,,,,,,
